Laboratory results reported in US20240400555A1 (Initial Therapeutics, Inc., priority 2023, published 2024).
Read-outs that look alike come from different tables or passages of the source.

System: MV-4-11 cells
Assay: Cell Viability Assay in MV-4-11 Cells
Format: cell-based
Conditions: Homo sapiens, MV4-11, 72 h
Summary of the method: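 Luminescent ATP read-out (CellTiter-Glo) after 72 h compound treatment of MV-4-11 leukaemia cells (7,000 per well, IMDM plus 10% FBS). Values expressed relative to DMSO control and derived by four-parameter non-linear regression.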

[1] = MV-4-11 cells, 72 h, Cell-Titer Glo, read-out: IC50

Compound | IC50 [1] [nM] | IC50 [nM]
Cc1cccc2ccnc(N(C(=O)c3cccc(C#CCCC(=O)NC(C)CO)c3)[C@@H]3CCCNC3)c12 (stereo partly drawn) [Example 520, 3-(5-((1-hydroxypropan-2-yl)amino)-5-oxopent-1-yn-1-yl)-N-(8-methylisoquinolin-1-yl)-N—((R)-piperidin-3-yl)benzamide] | 1700 | 
O=C(c1ccc(-n2nnc3cccnc32)cc1F)N(c1nccc2sc(-c3ccccn3)cc12)[C@@H]1CCCNC1 [Example 365, 2-fluoro-N-[(3R)-3-piperidyl]-N-[2-(2-pyridyl)thieno[3,2-c]pyridin-4-yl]-4-(triazolo[4,5-b]pyridin-3-yl)benzamide] | 480 | 
O=C(c1ccc(Nc2nccc(N3CCCCC3)n2)cc1F)N(c1nccc2cc(F)ccc12)[C@@H]1CCCNC1 [Example 561, (R)-2-fluoro-N-(6-fluoroisoquinolin-1-yl)-4-((4-(piperidin-1-yl)pyrimidin-2-yl)amino)-N-(piperidin-3-yl)benzamide] | 1200 | 
Cn1cc(-c2ccc(C(=O)N(c3nccc4sc(-c5ccc(C(O)C(F)(F)F)cc5)cc34)[C@@H]3CCCNC3)c(F)c2)nn1 (stereo partly drawn) [Example 605, 2-fluoro-4-(1-methyl-1H-1,2,3-triazol-4-yl)-N—((R)-piperidin-3-yl)-N-(2-(4-(2,2,2-trifluoro-1-hydroxyethyl)phenyl)thieno[3,2-c]pyridin-4-yl)benzamide] | 470 | 
O=C(c1ccc(-n2nnc3cccnc32)cc1F)N(c1nccc2cc(-c3ccncc3)sc12)[C@@H]1CCCNC1 [Example 384, 2-fluoro-N-[(3R)-3-piperidyl]-N-[2-(4-pyridyl)thieno[2,3-c]pyridin-7-yl]-4-(triazolo[4,5-b]pyridin-3-yl)benzamide] | 110 | 
Cc1cc(F)cc2ccnc(N(C(=O)c3ccc(-c4nnn(C)c4C)cc3)[C@@H]3CCCNC3)c12 [Example 770, (R)-4-(1,5-dimethyl-1H-1,2,3-triazol-4-yl)-N-(6-fluoro-8-methylisoquinolin-1-yl)-N-(piperidin-3-yl)benzamide] | 430 | 
Cn1cc(-c2ccc(C(=O)N(c3nccc4cccc(/C=C/c5cn[nH]c5)c34)[C@@H]3CCCNC3)cc2)nn1 [Example 348, (R,E)-N-(8-(2-(1H-pyrazol-4-yl)vinyl)isoquinolin-1-yl)-4-(1-methyl-1H-1,2,3-triazol-4-yl)-N-(piperidin-3-yl)benzamide] | 460 | 
O=C(c1ccc(-n2nnc3cccnc32)cc1F)N(c1nccc2sc(-c3cnccn3)cc12)[C@@H]1CCCNC1 [Example 451, 2-fluoro-N-[(3R)-3-piperidyl]-N-(2-pyrazin-2-ylthieno[3,2-c]pyridin-4-yl)-4-(triazolo[4,5-b]pyridin-3-yl)benzamide] | 250 | 
Nc1nccc(-c2cc3c(N(C(=O)c4ccc(-n5nnc6cccnc65)cc4F)[C@@H]4CCCNC4)nccc3s2)n1 [Example 457, N-[2-(2-aminopyrimidin-4-yl)thieno[3,2-c]pyridin-4-yl]-2-fluoro-N-[(3R)-3-piperidyl]-4-(triazolo[4,5-b]pyridin-3-yl)benzamide] | 290 | 
Cc1cn(-c2ccc(C(=O)N(c3nccc4scc(C)c34)[C@@H]3CCCNC3)cc2)nn1 [Example 689, (R)-4-(4-methyl-1H-1,2,3-triazol-1-yl)-N-(3-methylthieno[3,2-c]pyridin-4-yl)-N-(piperidin-3-yl)benzamide] | 120 | 
C=C(C)c1ccnc(N(C(=O)c2ccc(-c3cn(C)nn3)cc2F)[C@@H]2CCCNC2)c1 [Example 887, 2-fluoro-N-(4-isopropenyl-2-pyridyl)-4-(1-methyltriazol-4-yl)-N-[(3R)-3-piperidyl]benzamide] | > 6300 | 
COC/C=C(\Cl)c1ccnc(Nc2ccc(C(=O)N(c3nccc4cccc(C)c34)[C@@H]3CCCNC3)c(F)c2)n1 [Example 731, (R)-4-((4-(1-chloro-3-methoxyprop-1-en-1-yl)pyrimidin-2-yl)amino)-2-fluoro-N-(8-methylisoquinolin-1-yl)-N-(piperidin-3-yl)benzamide] | 120 | 
O=C(c1ccc(-n2nnc3cccnc32)cc1F)N(c1nccc2sc(CCc3ccncc3)cc12)[C@@H]1CCCNC1 [Example 503, 2-fluoro-N-[(3R)-3-piperidyl]-N-[2-[2-(4-pyridyl)ethyl]thieno[3,2-c]pyridin-4-yl]-4-(triazolo[4,5-b]pyridin-3-yl)benzamide] | 2300 | 
Cn1cc(-c2ccc(C(=O)N(c3nccc4sc(Br)cc34)[C@@H]3CCCNC3)cc2O)cn1 [Example 475, N-(2-bromothieno[3,2-c]pyridin-4-yl)-3-hydroxy-4-(1-methylpyrazol-4-yl)-N-[(3R)-3-piperidyl] benzamide] | 4600 | 
Cc1cccc2ccnc(N(C(=O)c3ccc(-c4cn(C)nn4)cc3Cl)[C@@H]3CCCNC3)c12 [Example 822, (R)-2-chloro-4-(1-methyl-1H-1,2,3-triazol-4-yl)-N-(8-methylisoquinolin-1-yl)-N-(piperidin-3-yl)benzamide] | 390 | 
CC(O)c1ccc(-c2cc3c(N(C(=O)c4ccc(-n5nnc6cccnc65)cc4F)[C@@H]4CCCNC4)nccc3s2)cc1 (stereo partly drawn) [Example 600, 4-(3H-[1,2,3]triazolo[4,5-b]pyridin-3-yl)-2-fluoro-N-(2-(4-(1-hydroxyethyl)phenyl)thieno[3,2-c]pyridin-4-yl)-N—((R)-piperidin-3-yl)benzamide] | 270 | 
CN(C)c1nccc(-c2cc3c(N(C(=O)c4ccc(-n5nnc6cccnc65)cc4F)[C@@H]4CCCNC4)nccc3s2)n1 [Example 458, N-[2-[2-(dimethylamino)pyrimidin-4-yl]thieno[3,2-c]pyridin-4-yl]-2-fluoro-N-[(3R)-3-piperidyl]-4-(triazolo[4,5-b]pyridin-3-yl)benzamide] | 390 | 
O=C(c1ccc(-n2nnc3cccnc32)cc1F)N(c1nccc2ccccc12)[C@@H]1CCCNC1 [Example 313, (R)-4-(3H-[1,2,3]triazolo[4,5-b]pyridin-3-yl)-2-fluoro-N-(isoquinolin-1-yl)-N-(piperidin-3-yl)benzamide] | 230 | 
O=C(c1ccc(-n2nnc3cccnc32)cc1F)N(c1nccc2sc(-c3nc4ccccn4n3)cc12)[C@@H]1CCCNC1 [Example 450, 2-fluoro-N-[(3R)-3-piperidyl]-N-[2-([1,2,4]triazolo[1,5-a]pyridin-2-yl)thieno[3,2-c]pyridin-4-yl]-4-(triazolo[4,5-b]pyridin-3-yl)benzamide] | 300 | 
Cc1cccc2ccnc(N(C(=O)c3ccc(Nc4nccc(-n5cncn5)n4)cc3F)[C@@H]3CCCNC3)c12 [Example 722, (R)-4-((4-(1H-1,2,4-triazol-1-yl)pyrimidin-2-yl)amino)-2-fluoro-N-(8-methylisoquinolin-1-yl)-N-(piperidin-3-yl)benzamide] | 160 | 
Cn1cc(-c2ccc(C(=O)N(c3nccc4cc(-c5ccncc5)sc34)[C@@H]3CCCNC3)c(F)c2)nn1 [Example 505, 2-fluoro-4-(1-methyltriazol-4-yl)-N-[(3R)-3-piperidyl]-N-[2-(4-pyridyl)thieno[2,3-c]pyridin-7-yl]benzamide] | 250 | 
CC(C)NC(=O)c1ccc2c(N(C(=O)c3ccc(-n4nnc5cccnc54)cc3F)[C@@H]3CCCNC3)nccc2c1 [Example 372, (R)-1-(4-(3H-[1,2,3]triazolo[4,5-b]pyridin-3-yl)-2-fluoro-N-(piperidin-3-yl)benzamido)-N-isopropylisoquinoline-6-carboxamide] |  | 100

The next lines start with results.

IC50 [1] [nM] | Compound | IC50 [nM]
350 | Cn1cc(-c2ccc(C(=O)N(c3nccc4c(Cl)csc34)[C@@H]3CCCNC3)c(F)c2)nn1 [Example 678, N-(3-chlorothieno[2,3-c]705yridine-7-yl)-2-fluoro-4-(1-methyltriazol-4-yl)-N-[(3R)-3-piperidyl]benzamide] | 
970 | COc1ccc2c(N(C(=O)c3ccc(-c4nnc(C)s4)cn3)[C@@H]3CCCNC3)nccc2c1F [Example 867, N-(5-fluoro-6-methoxy-1-isoquinolyl)-5-(5-methyl-1,3,4-thiadiazol-2-yl)-N-[(3R)-3-piperidyl]pyridine-2-carboxamide] | 
780 | Cc1nnc(-c2ccc(C(=O)N(c3nccc4sc(-c5ccncc5)cc34)[C@@H]3CCCNC3)c(F)c2)s1 [Example 593, 2-fluoro-4-(5-methyl-1,3,4-thiadiazol-2-yl)-N-[(3R)-3-piperidyl]-N-[2-(4-pyridyl)thieno[3,2-c]pyridin-4-yl]benzamide] | 
69 | Cc1nnc(-c2ccc(C(=O)N(c3nccc4cc(Cl)cc(C)c34)[C@@H]3CCCNC3)c(F)c2)s1 [Example 815, (R)—N-(6-chloro-8-methylisoquinolin-1-yl)-2-fluoro-4-(5-methyl-1,3,4-thiadiazol-2-yl)-N-(piperidin-3-yl)benzamide] | 
840 | Cc1nn(C)c(-c2ccc(C(=O)N(c3nccc4cccc(C)c34)[C@@H]3CCCNC3)c(F)c2)c1N [Example 392, 4-(4-amino-2,5-dimethyl-pyrazol-3-yl)-2-fluoro-N-(8-methyl-1-isoquinolyl)-N-[(3R)-3-piperidyl]benzamide] | 
67 | CCn1cc(-c2ccc(C(=O)N(c3nccc4cccc(C)c34)[C@@H]3CCCNC3)c(F)c2)nn1 [Example 821, (R)-4-(1-ethyl-1H-1,2,3-triazol-4-yl)-2-fluoro-N-(8-methylisoquinolin-1-yl)-N-(piperidin-3-yl)benzamide] | 
180 | C=Cc1csc2ccnc(N(C(=O)c3ccc(-c4nnc(C)s4)cc3F)[C@@H]3CCCNC3)c12 [Example 886, 2-fluoro-4-(5-methyl-1,3,4-thiadiazol-2-yl)-N-[(3R)-3-piperidyl]-N-(3-vinylthieno[3,2-c]pyridin-4-yl)benzamide] | 
150 | CCOc1cc(C)c2c(N(C(=O)c3ccc(-c4nnc(C)s4)cn3)[C@@H]3CCCNC3)nccc2c1 [Example 865, N-(6-ethoxy-8-methyl-1-isoquinolyl)-5-(5-methyl-1,3,4-thiadiazol-2-yl)-N-[(3R)-3-piperidyl]pyridine-2-carboxamide] | 
150 | Cc1csc2ccnc(N(C(=O)c3ccc(-c4cn(CCC#N)nn4)cc3F)[C@@H]3CCCNC3)c12 [Example 881, 4-[1-(2-cyanoethyl)triazol-4-yl]-2-fluoro-N-(3-methylthieno[3,2-c]pyridin-4-yl)-N-[(3R)-3-piperidyl]benzamide] | 
